# What was measured:
# CDK1/Cyclin B1 = CDK1/Cyclin B1 (Homo sapiens, UniProt P06493); assay: CDK1/Cyclin B1 Biochemical Assay (TR-FRET), 0.015 mM ATP; conditions: 0.15 μM Rb (Ser780)-biotin substrate, pH7.0, 60 min preincubation, 120 min reaction, room temperature
# Method: (§1) CDK2/Cyclin E1 and CDK1/Cyclin B1 Biochemical Assays
# (§2) Compounds disclosed herein were tested for inhibition of CDK2/Cyclin E1 or CDK1/Cyclin B1 kinase in an assay based on the time-resolved fluorescence-resonance energy transfer (TR-FRET) methodology. The assay was carried out in 384-well low volume black plates in a reaction mixture containing CDK2/Cyclin E1 or CDK1/Cyclin B1, 0.060 mM ATP for CDK2/Cyclin E1 or 0.015 mM ATP for CDK1/Cyclin B1, 0.15 μM Rb (Ser780)-biotin substrate and 0-10 μM compound in buffer containing 50 mM HEPES pH7.0, 0.02% NaN3, 0.01% BSA, 0.1 mM Orthovanadate, 50 mM MgCl2, 1 mM DTT and 0.005% Tween-20. The kinase was incubated with compound for 60 minutes at room temperature and the reaction was initiated by the addition of ATP and Rb (Ser780)-biotin substrate. After reaction at room temperature for 120 minutes, an equal volume of stop/detection solution was added according to the manufacture's instruction (Cisbio Bioassays). The stop/detection solution contained Streptavidin-XL665 and Anti-pRb (Ser780) mAb-Eu Cryptate in Detection buffer (Cisbio Bioassays). Plates were incubated at room temperature for 60 minutes, and the TR-FRET signals (ex337 nm, em665 nm/620 nm) were recorded on a PHERAstar FSX plate reader (BMG Labtech). The inhibition percentage of CDK2/Cyclin E1 or CDK1/Cyclin B1 kinase activity in presence of increasing concentrations of compounds was calculated based on the ratio of fluorescence at 665 nm to that at 620 nm. The IC50 for each compound was derived from fitting the data to the four-parameter logistic equation by Dotmatics.
# CDK2/Cyclin E1 = CDK2/Cyclin E1 (Homo sapiens, UniProt P24941); assay: CDK2/Cyclin E1 Biochemical Assay (TR-FRET), 0.060 mM ATP; conditions: 0.15 μM Rb (Ser780)-biotin substrate, pH7.0, 60 min preincubation, 120 min reaction, room temperature
# Method: as §1, §2
# CDK1/Cyclin B1, sequence (P06493 whole entry): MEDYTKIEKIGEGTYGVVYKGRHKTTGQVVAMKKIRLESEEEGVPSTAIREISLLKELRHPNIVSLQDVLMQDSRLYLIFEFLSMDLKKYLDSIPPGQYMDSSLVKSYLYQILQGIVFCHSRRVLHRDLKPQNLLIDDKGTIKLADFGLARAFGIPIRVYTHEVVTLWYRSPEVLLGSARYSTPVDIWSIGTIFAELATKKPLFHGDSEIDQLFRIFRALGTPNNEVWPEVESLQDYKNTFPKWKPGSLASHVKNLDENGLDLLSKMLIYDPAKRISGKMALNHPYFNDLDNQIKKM
# CDK1/Cyclin B1, sequence (P14635 whole entry partner): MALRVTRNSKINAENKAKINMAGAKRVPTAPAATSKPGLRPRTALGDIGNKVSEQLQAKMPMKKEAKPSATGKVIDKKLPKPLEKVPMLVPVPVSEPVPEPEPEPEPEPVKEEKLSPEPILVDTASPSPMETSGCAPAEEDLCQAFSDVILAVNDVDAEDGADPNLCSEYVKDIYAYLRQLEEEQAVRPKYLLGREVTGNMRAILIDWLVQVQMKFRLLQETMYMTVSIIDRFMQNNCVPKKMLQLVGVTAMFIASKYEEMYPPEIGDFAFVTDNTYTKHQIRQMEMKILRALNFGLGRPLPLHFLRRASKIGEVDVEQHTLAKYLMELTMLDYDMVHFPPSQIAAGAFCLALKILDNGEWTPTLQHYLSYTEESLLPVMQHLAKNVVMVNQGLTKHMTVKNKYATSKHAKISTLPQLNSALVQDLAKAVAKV
IC50 (CDK1/Cyclin B1) [nM],IC50 (CDK2/Cyclin E1) [nM],SMILES
> 10000,1260,"CC(C)NC(=O)O[C@H]1CC[C@@H](c2cc(Nc3cc4c(cc3OC(F)(F)F)S(=O)(=O)NC4)n[nH]2)C1 (relative stereo) [Example 28, cis-3-(3-((1,1-dioxido-6-(trifluoromethoxy)-2,3-dihydrobenzo[d]isothiazol-5-yl)amino)-1H-pyrazol-5-yl)cyclopentyl isopropylcarbamate]"
113,2.2,"CC(C)NC(=O)O[C@H]1CC[C@@H](c2cc(Nc3cc(F)c4c(c3)CNS4(=O)=O)n[nH]2)C1 (relative stereo) [Example 29, cis-3-(3-((7-fluoro-1,1-dioxido-2,3-dihydrobenzo[d]isothiazol-5-yl)amino)-1H-pyrazol-5-yl)cyclopentyl isopropylcarbamate]"
544,7.2,"CC(C)NC(=O)O[C@H]1CC[C@@H](c2cc(Nc3c(F)cc4c(c3F)CNS4(=O)=O)n[nH]2)C1 (relative stereo) [Example 30, cis-3-(3-((4,6-difluoro-1,1-dioxido-2,3-dihydrobenzo[d]isothiazol-5-yl)amino)-1H-pyrazol-5-yl)cyclopentyl isopropylcarbamate]"
166,7,"CC(C)NC(=O)O[C@H]1CC[C@@H](c2cc(Nc3cnc4c(c3)CNS4(=O)=O)n[nH]2)C1 (relative stereo) [Example 31, cis-3-(3-((1,1-dioxido-2,3-dihydroisothiazolo[5,4-b]pyridin-5-yl)amino)-1H-pyrazol-5-yl)cyclopentyl isopropylcarbamate]"
424,21,"CC(C)NC(=O)O[C@H]1CC[C@@H](c2cc(Nc3cnc4c(c3)CN(C)S4(=O)=O)n[nH]2)C1 (relative stereo) [Example 32, cis-3-(3-((2-methyl-1,1-dioxido-2,3-dihydroisothiazolo[5,4-b]pyridin-5-yl)amino)-1H-pyrazol-5-yl)cyclopentyl isopropylcarbamate]"
38,1.8,"CC(C)NC(=O)O[C@H]1CC[C@@H](c2cc(Nc3ccc4c(n3)CNS4(=O)=O)n[nH]2)C1 (relative stereo) [Example 33, cis-3-(3-((1,1-dioxido-2,3-dihydroisothiazolo[4,5-b]pyridin-5-yl)amino)-1H-pyrazol-5-yl)cyclopentyl isopropylcarbamate]"
81,1.9,"Cc1c(Nc2cc([C@@H]3CC[C@H](OC(=O)NC(C)C)C3)[nH]n2)ccc2c1CNS2(=O)=O (relative stereo) [Example 34, cis-3-(3-((4-methyl-1,1-dioxido-2,3-dihydrobenzo[d]isothiazol-5-yl)amino)-1H-pyrazol-5-yl)cyclopentyl isopropylcarbamate]"
296,8.9,"Cc1c(Nc2cc([C@@H]3CC[C@H](OC(=O)NC(C)C)C3)[nH]n2)ccc2c1CN(C)S2(=O)=O (relative stereo) [Example 35, cis-3-(3-((2,4-dimethyl-1,1-dioxido-2,3-dihydrobenzo[d]isothiazol-5-yl)amino)-1H-pyrazol-5-yl)cyclopentyl isopropylcarbamate]"
329,18,"COCCN1Cc2c(ccc(Nc3cc([C@@H]4CC[C@H](OC(=O)NC(C)C)C4)[nH]n3)c2C)S1(=O)=O (relative stereo) [Example 36, cis-3-(3-((2-(2-methoxyethyl)-4-methyl-1,1-dioxido-2,3-dihydrobenzo[d]isothiazol-5-yl)amino)-1H-pyrazol-5-yl)cyclopentyl isopropylcarbamate]"
313,7.2,"Cc1c(Nc2cc([C@@H]3CC[C@H](OC(=O)NC(C)C)C3)[nH]n2)ccc2c1CN(CCO)S2(=O)=O (relative stereo) [Example 37, cis-3-(3-((2-(2-hydroxyethyl)-4-methyl-1,1-dioxido-2,3-dihydrobenzo[d]isothiazol-5-yl)amino)-1H-pyrazol-5-yl)cyclopentyl isopropylcarbamate]"
512,2.3,"CC[C@H](C)NC(=O)O[C@H]1CC[C@@H](c2cc(Nc3ccc4c(c3Cl)CNS4(=O)=O)n[nH]2)C1 (relative stereo) [Example 41, cis-3-(3-((4-chloro-1,1-dioxido-2,3-dihydrobenzo[d]isothiazol-5-yl)amino)-1H-pyrazol-5-yl)cyclopentyl((S)-sec-butyl)carbamate]"
130,1.1,"CC[C@H](C)NC(=O)O[C@H]1CC[C@@H](c2cc(Nc3cc4c(cc3F)S(=O)(=O)NC4)n[nH]2)C1 (relative stereo) [Example 43, cis-3-(3-((6-fluoro-1,1-dioxido-2,3-dihydrobenzo[d]isothiazol-5-yl)amino)-1H-pyrazol-5-yl)cyclopentyl((S)-sec-butyl)carbamate]"
6010,181,"CC(C)NC(=O)O[C@H]1CC[C@@H](c2cc(Nc3cc4c(cc3F)S(=O)(=O)N(C)C4)n[nH]2)C1 (relative stereo) [Example 45, cis-3-(3-((6-fluoro-2-methyl-1,1-dioxido-2,3-dihydrobenzo[d]isothiazol-5-yl)amino)-1H-pyrazol-5-yl)cyclopentyl isopropylcarbamate]"
4420,230,"[2H]C([2H])([2H])N1Cc2cc(Nc3cc([C@@H]4CC[C@H](OC(=O)NC(C)C)C4)[nH]n3)c(F)cc2S1(=O)=O (relative stereo) [Example 46, cis-3-(3-((6-fluoro-2-(methyl-d3)-1,1-dioxido-2,3-dihydrobenzo[d]isothiazol-5-yl)amino)-1H-pyrazol-5-yl)cyclopentyl isopropylcarbamate]"
7380,158,"CC(C)NC(=O)O[C@H]1CC[C@@H](c2cc(Nc3cc4c(cc3F)S(=O)(=O)N(CCO)C4)n[nH]2)C1 (relative stereo) [Example 47, cis-3-(3-((6-fluoro-2-(2-hydroxyethyl)-1,1-dioxido-2,3-dihydrobenzo[d]isothiazol-5-yl)amino)-1H-pyrazol-5-yl)cyclopentyl isopropylcarbamate]"
> 10000,243,"COCCN1Cc2cc(Nc3cc([C@@H]4CC[C@H](OC(=O)NC(C)C)C4)[nH]n3)c(F)cc2S1(=O)=O (relative stereo) [Example 48, cis-3-(3-((6-fluoro-2-(2-methoxyethyl)-1,1-dioxido-2,3-dihydrobenzo[d]isothiazol-5-yl)amino-1H-pyrazol-5-yl)cyclopentyl isopropylcarbamate]"
> 10000,758,"CC(C)NC(=O)O[C@H]1CC[C@@H](c2cc(Nc3cc4c(cc3F)S(=O)(=O)N(C(C)C)C4)n[nH]2)C1 (relative stereo) [Example 49, cis-3-(3-((6-fluoro-2-isopropyl-1,1-dioxido-2,3-dihydrobenzo[d]isothiazol-5-yl)amino)-1H-pyrazol-5-yl)cyclopentyl isopropylcarbamate]"
1890,71,"CC(C)NC(=O)O[C@H]1CC[C@@H](c2cc(Nc3ccc4c(c3F)C(C)(C)NS4(=O)=O)n[nH]2)C1 (relative stereo) [Example 55, cis-3-(3-((4-fluoro-3,3-dimethyl-1,1-dioxido-2,3-dihydrobenzo[d]isothiazol-5-yl)amino)-1H-pyrazol-5-yl)cyclopentyl isopropylcarbamate]"
472,25,"CC1(NC(=O)O[C@H]2CC[C@@H](c3cc(Nc4ccc5c(c4F)C(C)(C)NS5(=O)=O)n[nH]3)C2)CC1 (relative stereo) [Example 56, cis-3-(3-((4-fluoro-3,3-dimethyl-1,1-dioxido-2,3-dihydrobenzo[d]isothiazol-5-yl)amino)-1H-pyrazol-5-yl)cyclopentyl(1-methylcyclopropyl)carbamate]"
1080,48,"CC[C@H](C)NC(=O)O[C@H]1CC[C@@H](c2cc(Nc3ccc4c(c3F)C(C)(C)NS4(=O)=O)n[nH]2)C1 (relative stereo) [Example 57, cis-3-(3-((4-fluoro-3,3-dimethyl-1,1-dioxido-2,3-dihydrobenzo[d]isothiazol-5-yl)amino)-1H-pyrazol-5-yl)cyclopentyl((S)-sec-butyl)carbamate]"
694,93,"CCCNC(=O)O[C@H]1CC[C@@H](c2cc(Nc3ccc4c(c3F)C(C)(C)NS4(=O)=O)n[nH]2)C1 (relative stereo) [Example 58, cis-3-(3-((4-fluoro-3,3-dimethyl-1,1-dioxido-2,3-dihydrobenzo[d]isothiazol-5-yl)amino)-1H-pyrazol-5-yl)cyclopentyl propylcarbamate]"
296,5.8,"CC(C)NC(=O)O[C@H]1CC[C@@H](c2cc(Nc3ccc4c(c3F)C(=O)NS4(=O)=O)n[nH]2)C1 (relative stereo) [Example 59, cis-3-(3-((4-fluoro-1,1-dioxido-3-oxo-2,3-dihydrobenzo[d]isothiazol-5-yl)amino)-1H-pyrazol-5-yl)cyclopentyl isopropylcarbamate]"
